From patent US4241063A, “Purine derivatives and their use as bronchodilators” (Bristol-Myers Company, priority 1979, dated 1980) come the findings set out here.

The ED50 is the midpoint of the dose-response relation.

The structures appear in SMILES notation. ≈ marks a conversion by molar mass, not a printed value. Like-named read-outs stand apart in the source and are kept apart here.

Series [1] has as its system Arterial blood pressure (ABP). In words: In vivo hypotensive activity: arterial blood pressure (ABP) in anesthetized guinea pig. As for the experimental part: (§1) The trachea of anesthetized guinea pig was cannulated and the ITP recorded on a polygraph under artificial ventilation. Arterial blood pressure (ABP; reflecting hypotensive activity) was also measured during the experiment. Either intravenous or intraduodenal routes of administration are used. […] The ratio of hypotensive ED20 /bronchodilating ED50 reflects an assessment of the separation of desirable bronchodilator activity from undesirable cardiovascular (hypotensive) effect in the compounds.

Series [2] concerns Tracheal chains of guinea pig. Kind of series: In vitro bronchodilator activity (guinea pig tracheal chain relaxation, Magnus method). The format is cell-based. To be noted: Cavia porcellus, read-out: EC50 (concentration producing a relaxation which is 50% of the maximum response to 0.1 mcg./ml. of isoproterenol), relative to maximum response to 0.1 mcg./ml. isoproterenol. As for the experimental part: Tracheal chains of guinea pig were prepared by the method of A. Akcasu, Arch. Int. Pharmacodyn. […] The response to each test compound was recorded by the Magnus method and expressed as a percentage of the maximum response obtained with 0.1 mcg./ml. of isoproterenol prior to each experiment.

Series [3] deals with intratracheal pressure (ITP) in the guinea pig. Kind of series: In vivo bronchodilator activity: decrease in intratracheal pressure (ITP) in anesthetized guinea pig. To be noted: for ED50: Cavia porcellus, read-out: ITP ED50 (dose resulting in a 50% decrease in intratracheal pressure). As for the experimental part: as §1

In the case of `Cn1c(=O)c2[nH]cnc2n(C)c1=O` [Aminophylline, reference compound], in series [1] (intravenous), the “ABP ED20 (dose which reduces arterial blood pressure by 20%)” value amounted to 1.4 mg/kg.

As to `Nc1nc(Cl)nc2c1ncn2C1CCCCO1` (centres unmarked) [Example 1, 2-Chloro-9-(tetrahydropyran-2-yl)-9H-adenine], in series [2], the EC50 turned out to be 0.45 mg/L (≈ 1.77 µM). The “ABP ED20 (dose which reduces arterial blood pressure by 20%)” value in series [1] (intravenous) was > 1 mg/kg. For the same molecule, in series [3] (intravenous), the ED50 is 0.23 mg/kg.

For `COc1nc(N)c2ncn(C3CCCCO3)c2n1` (centres unmarked) [Example 2, 2-Methoxy-9-(tetrahydropyran-2-yl)-9H-adenine], in series [2], the EC50 was > 3 mg/L. In series [1] (intravenous), the “ABP ED20 (dose which reduces arterial blood pressure by 20%)” value was > 1 mg/kg. Besides, the ED50 in series [3] (intravenous) stood at 2.2 mg/kg.

Turning to `CCCOc1nc(N)c2ncn(C3CCCCO3)c2n1` (centres unmarked) [Example 3, 2-n-Propoxy-9-(tetrahydropyran-2-yl)-9H-adenine], the EC50 in series [2] is 0.17 mg/L (≈ 0.613 µM). In addition, the “ABP ED20 (dose which reduces arterial blood pressure by 20%)” value in series [1] (intraduodenal) turned out to be 13.5 mg/kg; in series [1] (intravenous), 1.9 mg/kg. Moreover, the ED50 was determined as 1.4 mg/kg in series [3] (intraduodenal) and 0.26 mg/kg in series [3] (intravenous). Moreover, the figures for the “Ratio ABP/ITP (hypotensive ED20/bronchodilating ED50)” value in series [3] (intraduodenal) and in series [3] (intravenous) were 9.6 and 7.3, respectively.
